Assay results published in PMC11786100, “Chronic GIPR agonism results in pancreatic islet GIPR functional desensitisation” (Molecular Metabolism, 2025).
Where two headings read alike, the source gives them in different places.

Experiments:
[1] = Peptide stability in complete medium with dispersed islet cells (cAMP bioactivity assay); format: in vitro ADME, mouse
Method: AD-293 cells were added to a 12-well plate and maintained in 2 ml complete DMEM. 1 μg of specified plasmid DNA was added to each well alongside Lipofectamine 2000 (Thermo Fisher, UK). cAMP production was quantified 24 hours following transfection using homogenous time resolved fluorescence (HTRF), specifically the cAMP-Gs Dynamic 2 kit (Cisbio, France). Peptides and cells were diluted in DMEM + 1% P/S + 0.1% BSA. For peptide stability testing, cells, fresh peptide and peptide incubated with dispersed islet cells were diluted in RPMI-1640 (Thermo Fisher, UK) + 10% FBS + 1% P/S. 10 μl of peptide and 10 μl of cell suspension were added in duplicate to an opaque 96-well plate (Grenier Bio-One, Austria) and incubated at 37°C for 30 minutes. 10 μl of cAMP-d2 and anti-cAMP cryptate, both diluted in lysis buffer, were added in quick succession as per the manufacturer’s protocol. The plates were then incubated at room temperature for 45 minutes and read using the SpectraMax i3x (Molecular Devices, US).
Three-parameter curve fitting was applied.

HFD-induced obese mice = assay: Acute fast-refeed food intake study; format: in vivo, mouse; details: 200 nmol/kg; vehicle and GIP108 (30 nmol/kg) pre-treated HFD-induced obese mice; n = 37–40
Method: (§1) In all in vivo studies, mice were randomised by body weight into groups. Mice received a 50 μL subcutaneous injection of saline (0.9% sodium chloride) or peptide at a specified dose, diluted in saline. Peptide dosing was in nmol per kg of total body weight. For the assessment of the chronic effects of GIP108, mice were injected daily for 15 days. Body composition was measured by EchoMRI on day −1 and day 15. An intraperitoneal glucose tolerance test (IPGTT) (2 g/kg) was conducted on day 14, following 6 h of fasting and 2 h after peptide injection. Non-fasting plasma leptin (ab199082, Abcam, UK), adiponectin (ab226900, Abcam, UK) and amino acids (ab65347, Abcam, UK) were measured on day 16. For the assessments of in vivo GIPR desensitisation, mice were injected at 17:00 with vehicle or GIP108 (30 nmol/kg) prior to an acute food intake study/IPGTT/insulin bleeds conducted the following day. Full details of the in vivo studies are provided in the supplementary methods.
Food intake was measured at t=30, t=60, t=120 and t=240 mins.

[2] = system: lean and HFD-induced obese mice; assay: In vivo GIPR desensitisation: IPGTT and insulin bleeds; set-up: species or system mouse
Method: as §1
Mice were fasted at 08:00. For all studies, 20% glucose was administered at 14:00, with the injection volume adjusted to the body weight of the mouse such that each mouse received glucose at 2 g/kg. To assess effects of GIP108 on day 14 of the chronic study, mice were dosed with saline or GIP108 at a specified dose at 12:00. […] Blood glucose measurements were taken via tail vein venesection at baseline, t=15, t=30, t=60, t=90 and t=120 mins. Glucose AUC is calculated using y=0. Glucose readings were measured in mmol/L using the same GlucoRx glucometer.
Mice were fasted at 08:00. At 14:00, mice received an intraperitoneal injection with 20% glucose, with the injection volume adjusted to the body weight of the mouse such that each mouse received glucose at 2 g/kg. […] Blood samples were taken via tail vein venesection at baseline and t=15 minutes following injection.
Leptin, adiponectin and amino acids were quantified following chronic GIP108 administration. Plasma amino acids were measured using the Abcam L-amino acid assay kit (ab65347, Abcam, UK). Plasma adiponectin was measured using the Abcam mouse adiponectin ELISA kit (ab226900, Abcam, UK). Plasma leptin was measured using the Abcam mouse leptin ELISA kit (ab199082, Abcam, UK). All assays were performed according to the manufacturer’s protocol and were read using the SpectraMax i3x Microplate Reader (Molecular Devices, US).

dispersed islet cells = assay: cADDis cAMP concentration-response in dispersed islets; format: cell-based, mouse; details: three-parameter fit, n=5, read-out: calculated EC50, cAMP in dispersed islets
Method: (§2) Primary cultures of mouse hypothalamic neurons and dispersed pancreatic islets were transduced with the Green Up cADDis biosensor (Montana Molecular, US). Pancreatic islets from CAMPER^Pdx−1-CreERT2 and CAMPER^Som-Cre mice were not transduced. Cells were pre-treated with peptides as specified, dissolved in culture media. Following 4 h or overnight incubation and a 1-hour washout period, cells were imaged using an epifluorescence microscope at baseline (t = 3 min), following peptide addition (t = 10 min, unless specified otherwise), and following 3-isobutyl-1-methylxanthine (IBMX) (500 μM) and forskolin (FSK) (50 μM) addition (t = 3 min) to maximally stimulate the sensor. In pre-treatment experiments, islet cell fluorescence was normalised to the IBMX/FSK response which was set as 100%. In non-pre-treatment experiments, islet and neuronal cell fluorescence was normalised to both the baseline and IBMX/FSK response. The area-under-the-curve (AUC) for each cell was quantified. Full details of isolation, transduction, plating, imaging and image analysis is provided in the supplementary methods.
Dispersed islets: A cell suspension of dispersed islets in RPMI-1640 + 10% FBS + 1% P/S (islet complete media) was seeded onto square 96 well µ-plates (Ibidi, UK), coated with 0.01% poly-D-lysine hydrobromide (Sigma-Aldrich, UK) and 25 µg/ml mouse laminin (Thermo Fisher, UK). For cADDis experiments, cells were transduced with the Green Up cADDis biosensor (15 μL of cADDis, 1.5 μL of sodium butyrate per well: Montana Molecular, US). Cells were incubated overnight (37°C, 95%:5% O2:CO2 ratio).
Cells were imaged in Krebs buffer with 6 mM glucose and 0.1% BSA (unless 10% FBS was specified) at 37°C using an automated epifluorescence microscope (modified Nikon Ti-2E with LED illumination). Multiple fields of view (FOV) were imaged in parallel (for islets, multiple wells of a 96 well plate were imaged in parallel), allowing hundreds to thousands of cells to be imaged every minute throughout the time course. For all acquisitions, the first three minutes were baseline recording pre-peptide addition and the last three minutes were a positive control following IBMX (500 μM) and forskolin (50 μM) addition to maximally stimulate the sensor.
cAMP quantification from the raw islet/neuronal images was performed using Fiji v1.54f (NIH). For each acquisition, a flat-field (BaSiC [3*]) correction was applied, and intensity thresholding enabled cell-containing regions to be identified as regions-of-interest (ROIs). The fluorescence intensity of each ROI was measured at each time point. In pre-treatment experiments, islet cell fluorescence was normalised to the maximal IBMX/FSK response which was set as 100%. For non-pre-treatment experiments, neuronal and islet cell fluorescence were normalised to both the baseline and maximal IBMX/FSK response. The AUC during peptide stimulation for each cell was quantified. Neurons with an AUC greater than 75 (representing a response 15 % of the maximum IBMX/FSK response) were deemed responder neurons.
We aimed to determine appropriate pre-treatment doses of GIPR agonists which would produce detectable cAMP responses, indicating target engagement, and were compatible with an extended incubation in complete medium, which could influence ligand availability via binding to serum proteins. We first performed concentration-response analysis in dispersed islets transduced with cADDis in the presence of 10% FBS (Figure S2A, B, D, E).
To determine a sensible re-challenge dose of GIPR agonists, a further concentration-response analysis was conducted in cADDis-transduced dispersed islets in imaging buffer (Krebs buffer + 6 mM glucose + 0.1% BSA, i.e. without FBS) (Figure S2C, F). […] Therefore, 1 μM of GIP108 and 100 nM of GIP were chosen as peri-maximal re-stimulation doses for the remaining islet cAMP assays.
GLP-1R agonist pre-treatment dose selection was performed concurrently with GIPR agonist dose selection.

[3] = system: murine hypothalamic neurons; assay: cADDis cAMP imaging in primary hypothalamic neurons; format: cell-based, mouse; details: 100 nM and 1 μM, 5-minute stimulation, n=4
Method: as §2
Primary cultures of hypothalamic neurons were prepared from 6-week-old male and female mice as described previously [2*]. A minor difference was that the neuronal pellet was resuspended in Neurobasal-A medium containing 0.25% Glutamax, 2% B27 and 25 ng/ml NGF (all Thermo Fisher, UK) (neuronal culture media).
Hypothalamic neurons: 100 μL cell suspension of neurons in neuronal culture media was seeded on 35 mm petri dish (MatTek Corporation), pre-coated with 0.01% poly-D-lysine hydrobromide. […]
cAMP quantification from the raw islet/neuronal images was performed using Fiji v1.54f (NIH). […] The fluorescence intensity of each ROI was measured at each time point. In pre-treatment experiments, islet cell fluorescence was normalised to the maximal IBMX/FSK response which was set as 100%. For non-pre-treatment experiments, neuronal and islet cell fluorescence were normalised to both the baseline and maximal IBMX/FSK response. The AUC during peptide stimulation for each cell was quantified. […]

[4] = 1 μM in complete medium with dispersed islet cells, cAMP bioactivity in mouse GIPR AD-293 cells

concentration remaining from 0.5 nM after 24 hours [1] [nM]	concentration remaining from 5 nM after 24 hours [1] [nM]	Compound	stability at 4 hours [1, 4]	stability at 24 hours [1, 4]	food intake, acute fast-refeed study (HFD-induced obese mice)	glucose tolerance during IPGTT ([2]; hGIP 50 nmol/kg with i.p. glucose, lean and HFD-induced obese mice given s.c. vehicle 21 h prior, n = 14–16)	glucose tolerance during IPGTT ([2]; hGIP 500 nmol/kg, lean and obese mice pre-treated with GIP108 (30 nmol/kg), n=6-8)	EC50 (dispersed islet cells; imaging buffer (Krebs buffer + 6 mM glucose + 0.1% BSA, without FBS)) [nM]	EC50 (dispersed islet cells; in the presence of 10% FBS, stepwise addition) [nM]	cAMP response of hypothalamic neurons [3]
0.12	0.97	CCCCCCCCCCCCCCCC(=O)N[C@@H](CCC(=O)NCCCC[C@H](NC(=O)[C@H](C)NC(=O)[C@H](C)NC(=O)[C@H](CCC(N)=O)NC(=O)CNC(=O)[C@H](CCC(=O)O)NC(=O)[C@H](CC(C)C)NC(=O)[C@H](Cc1ccc(O)cc1)NC(=O)[C@H](CO)NC(=O)[C@H](CO)NC(=O)[C@@H](NC(=O)[C@H](CC(=O)O)NC(=O)[C@H](CO)NC(=O)[C@@H](NC(=O)[C@H](Cc1ccccc1)NC(=O)[C@@H](NC(=O)CNC(=O)[C@H](CCC(=O)O)NC(=O)[C@H](C)NC(=O)[C@@H](N)Cc1cnc[nH]1)[C@@H](C)O)[C@@H](C)O)C(C)C)C(=O)N[C@@H](CCC(=O)O)C(=O)N[C@@H](Cc1ccccc1)C(=O)N[C@H](C(=O)N[C@@H](C)C(=O)N[C@@H](Cc1c[nH]c2ccccc12)C(=O)N[C@@H](CC(C)C)C(=O)N[C@H](C(=O)N[C@@H](CCCNC(=N)N)C(=O)NCC(=O)N[C@@H](CCCNC(=N)N)C(=O)NCC(=O)O)C(C)C)[C@@H](C)CC)C(=O)O [liraglutide]	–	–	–	–	–	–	–	–
–	–	human GIP(1–42) [hGIP]	remained stable at 4 hours	not 24 hours	modest reductions in food intake	significantly improved glucose tolerance	still able to improve glucose tolerance	6.37	69.4	failed to show detectable responses
